# Source: patent US20120121591A1 (priority 2009, published 2012)
# Read-outs that look alike come from different tables or passages of the source.
# Tested on: IFN-g secretion from T cells in human whole blood
# Format: cell-based
# [1] = read-out: WB (IFNg) IC50 (nM, Avg)
SMILES,IC50 [1] [nM],"IC50 (read-out: WB (IFNg) IC5- (nM, Avg)) [nM]"
CC[C@H](C)[C@@H]1NC(=O)[C@@H](NC(=O)[C@H](CO)NC(=O)[C@@H](N)CCCNC(=N)N)CSSC[C@@H](C(=O)O)NC(=O)[C@H]([C@@H](C)O)NC(=O)[C@H](CCCCN)NC(=O)[C@@H]2CSSC[C@@H]3NC(=O)[C@H](CCC(N)=O)NC(=O)[C@H](Cc4ccccc4)NC(=O)[C@H](C)NC(=O)[C@H]([C@@H](C)O)NC(=O)[C@H](CSSC[C@H](NC(=O)[C@H](Cc4ccccc4)NC(=O)[C@H](CO)NC(=O)[C@H](CC(C)C)NC(=O)[C@H](CCCNC(=N)N)NC(=O)[C@H](Cc4ccc(O)cc4)NC(=O)[C@H](CCCCN)NC(=O)[C@H](CCSC)NC(=O)[C@H](CO)NC(=O)[C@H](Cc4c[nH]cn4)NC(=O)[C@H](CCCCN)NC3=O)C(=O)N[C@@H](CCCNC(=N)N)C(=O)N[C@@H](CCCCN)C(=O)N[C@@H]([C@@H](C)O)C(=O)N2)NC(=O)[C@H](CCCNC(=N)N)NC(=O)[C@H](CO)NC(=O)[C@H](CCCCN)NC(=O)[C@@H]2CCCN2C(=O)[C@H]([C@@H](C)CC)NC(=O)[C@H]([C@@H](C)O)NC(=O)[C@H](CC(=O)O)NC1=O [[Lys33]ShK],0.317,
CC[C@H](C)[C@@H]1NC(=O)[C@@H](NC(=O)[C@H](CO)NC(=O)[C@@H](N)CCCNC(=N)N)CSSC[C@@H](C(=O)O)NC(=O)[C@H]([C@@H](C)O)NC(=O)CNC(=O)[C@@H]2CSSC[C@@H]3NC(=O)[C@H](CCC(N)=O)NC(=O)[C@H](Cc4ccccc4)NC(=O)[C@H](C)NC(=O)[C@H]([C@@H](C)O)NC(=O)[C@H](CSSC[C@H](NC(=O)[C@H](Cc4ccccc4)NC(=O)[C@H](CO)NC(=O)[C@H](CC(C)C)NC(=O)[C@H](CCCNC(=N)N)NC(=O)[C@H](Cc4ccc(O)cc4)NC(=O)[C@H](CCCCN)NC(=O)[C@H](CCSC)NC(=O)[C@H](CO)NC(=O)[C@H](CCC(=O)O)NC(=O)[C@H](CCCCN)NC3=O)C(=O)N[C@@H](CCCNC(=N)N)C(=O)N[C@@H](CCCCN)C(=O)N[C@@H]([C@@H](C)O)C(=O)N2)NC(=O)[C@H](CCCNC(=N)N)NC(=O)[C@H](CO)NC(=O)[C@H](CCCCN)NC(=O)[C@@H]2CCCN2C(=O)[C@H]([C@@H](C)CC)NC(=O)[C@H]([C@@H](C)O)NC(=O)[C@H](CC(=O)O)NC1=O [[Glu19]ShK],,0.215
CC[C@H](C)[C@@H]1NC(=O)[C@@H](NC(=O)[C@H](CO)NC(=O)[C@@H](N)CCCNC(=N)N)CSSC[C@@H](C(=O)O)NC(=O)[C@H]([C@@H](C)O)NC(=O)[C@H](Cc2cccc3ccccc23)NC(=O)[C@@H]2CSSC[C@@H]3NC(=O)[C@H](CCC(N)=O)NC(=O)[C@H](Cc4ccccc4)NC(=O)[C@H](C)NC(=O)[C@H]([C@@H](C)O)NC(=O)[C@H](CSSC[C@H](NC(=O)[C@H](Cc4ccccc4)NC(=O)[C@H](CO)NC(=O)[C@H](CC(C)C)NC(=O)[C@H](CCCNC(=N)N)NC(=O)[C@H](Cc4ccc(O)cc4)NC(=O)[C@H](CCCCN)NC(=O)[C@H](CCSC)NC(=O)[C@H](CO)NC(=O)[C@H](Cc4c[nH]cn4)NC(=O)[C@H](CCCCN)NC3=O)C(=O)N[C@@H](CCCNC(=N)N)C(=O)N[C@@H](CCCCN)C(=O)N[C@@H]([C@@H](C)O)C(=O)N2)NC(=O)[C@H](CCCNC(=N)N)NC(=O)[C@H](CO)NC(=O)[C@H](CCCCN)NC(=O)[C@@H]2CCCN2C(=O)[C@H]([C@@H](C)CC)NC(=O)[C@H]([C@@H](C)O)NC(=O)[C@H](CC(=O)O)NC1=O [[1-Nal33]ShK],1.43,
